# Assay results: publication PMC11784183, “Identification of an antibiotic from an HTS targeting EF-Tu:tRNA interaction: a prospective topical treatment for MRSA skin infections” (Applied and Environmental Microbiology, 2024)
# Where two headings read alike, the source gives them in different places.
# Experiments:
# [1] = tested on: ribosomal translation in vitro (PURExpress); assay: Purified in vitro translation assay (PURExpress); assay type: biochemical; conditions: highest concentration tested
# Text: (A) Coomassie blue staining of sodium dodecyl sulfate polyacrylamide gel electrophoresis (SDS-PAGE) following in vitro translation with the PURExpress translation kit (New England Biolabs). The protein synthesized (Dihydrofolate reductase) in the reaction is shown in the small rectangles superimposed on the gel. (B) Quantification using a BioRad gel scanner and software provided with this scanner.
# PURExpress in vitro purified ribosomal translation kit (New England Biolabs) was used. Biochemical protocols used were as described by the manufacturer.
# [2] = tested on: S. aureus; assay: Drug susceptibility assay (96-well, MIC); assay type: cell-based; conditions: Staphylococcus aureus
# [3] = tested on: S. pseudintermedius; assay: MIC testing by broth microdilution; assay type: cell-based
# [4] = tested on: non-aureus staphylococcal strains (14 species); assay: MIC testing by broth microdilution, panel of non-aureus staphylococcal strains; assay type: cell-based, Staphylococcus spp.; conditions: Staphylococcus; for 18 of 23 other Staphylococcal strains; read-out: MIC90 and MIC50
# [5] = tested on: S. lentus; assay: MIC testing by broth microdilution; assay type: cell-based
# [6] = male, C57B6, mouse, in vivo, ip, 10 mg/kg, 7 h
# [7] = tested on: S. epidermidis; assay: MIC testing by broth microdilution; assay type: cell-based
# [8] = assay type: in vitro ADME, human
# Description: (§1) Briefly, each reaction mixture (110 µL) consisted of a test article (1 µM), mix gender human, male Sprague Dawley rat or male CD-1 mouse microsomal fractions (0.5 mg/mL), and NADPH regenerating system in phosphate buffer at pH 7.4. Samples were incubated in 384-well plates at 37°C for 0, 5, 10, 15, 30, and 60 min. Sample analysis and half-life calculations were performed using a previously described method ([22]). The three controls used were Buspirone (short half-life), Loperamide (moderate half-life), and Antipyrine (long half-life).
# (§2) Categories were defined as follows: unstable, t1/2 < 30 min; stable, t1/2 > 30 min.
# [9] = tested on: S. warneri; assay: MIC testing by broth microdilution; assay type: cell-based
# [10] = tested on: M. tuberculosis H37Rv (ATTC 27294); assay: Drug susceptibility assay (96-well, MIC); assay type: cell-based; conditions: Mycobacterium tuberculosis, Acid-fast
# [11] = tested on: K. pneumoniae (ATCC 43816); assay: Drug susceptibility assay (96-well, MIC); assay type: cell-based; conditions: Klebsiella pneumoniae, ATCC43816; Gram-negative
# [12] = tested on: S. saprophyticus; assay: MIC testing by broth microdilution; assay type: cell-based
# [13] = mouse, in vivo, ip, 10 mg/kg
# [14] = tested on: S. haemolyticus; assay: MIC testing by broth microdilution; assay type: cell-based; conditions: Staphylococcus haemolyticus; BK strain 21148
# [15] = tested on: ERβ receptor; parameters: method as in PMID 9927308; conditions: cited from earlier work
# [16] = tested on: S. lugdunensis; assay: MIC testing by broth microdilution; assay type: cell-based
# [17] = tested on: S. cohnii; assay: MIC testing by broth microdilution; assay type: cell-based; conditions: Staphylococcus cohnii; BK strain 22939
# [18] = tested on: Vero cells (ATCC CCL-81)
# Description: Compounds were tested for cytotoxicity against Vero cells using the CellTiter 96 AQueous One Solution Assay kit (Promega). Vero cells were seeded in 96-well plates at a density of 2 × 10^4 cells per well, and the plates were incubated for 4 h at 37°C to allow attachments of the Vero cells. Chemical compounds being tested were then added to the wells starting from a final concentration of 50 µg/mL and making 12 1:2 dilutions. Cells were incubated for 72 h at 37°C, after which 20 µL of freshly prepared MTS:PMS reagents were added to each well. Plates were incubated for 2 h and then read at an absorbance of 490 nm.
# [19] = tested on: Staphylococcus aureus; assay: MIC testing by broth microdilution; assay type: cell-based
# [20] = tested on: S. sciuri; assay: MIC testing by broth microdilution; assay type: cell-based
# [21] = tested on: S. caprae; assay: MIC testing by broth microdilution; assay type: cell-based; conditions: BK strain 22945
# [22] = tested on: S. simulans; assay: MIC testing by broth microdilution; assay type: cell-based; conditions: Staphylococcus simulans; BK strain 26201
# [23] = tested on: A. baumannii (ATCC 17988); assay: Drug susceptibility assay (96-well, MIC); assay type: cell-based; conditions: Acinetobacter baumannii, ATCC17988; Gram-negative
# [24] = tested on: B. subtilis; assay: Inhibition of bacterial growth in liquid culture; assay type: cell-based; conditions: Bacillus subtilis
# Description: (§3) Strains and reagents were the same as in the zone-inhibition assay (above). […] The culture was diluted again 1/500 in 1 mL of fresh media with the presence of increasing concentrations of tested compound or 1% DMSO as a control.
# [25] = tested on: S. aureus USA300 subcutaneous infection; assay: Mouse skin infection model, topical ointment; assay type: in vivo, mice; conditions: topical ointment daily; for dermonecrosis as a result of S. aureus infection (area over time): 5 days, vs untreated control (ointment without drug); for bacterial burden in punch biopsies: day 5, vs untreated control
# [26] = tested on: P. aeruginosa (ATCC BAA47); assay: Drug susceptibility assay (96-well, MIC); assay type: cell-based; conditions: Pseudomonas aeruginosa, ATCCBAA47; Gram-negative
# [27] = tested on: S. aureus USA300; conditions: 15 µM, 0-4 h
# Description: S. aureus USA300 was inoculated 1:100 into LB medium from overnight cultures. Cells were grown to the early exponential phase and back diluted to OD600 0.1. […] Samples were serially diluted and plated on LB agar. Colonies were enumerated after overnight incubation at 37°C. Time-kill experiments were performed with n = 4 biological replicates.
# [28] = in vivo; conditions: male, C57B6, mouse, ip, 10 mg/kg
# [29] = assay type: in vitro ADME, rat
# Description: as §1, §2
# [30] = tested on: S. xylosus; assay: MIC testing by broth microdilution; assay type: cell-based; conditions: Staphylococcus xylosus; BK strain 26203
# [31] = tested on: S. gallinarum; assay: MIC testing by broth microdilution; assay type: cell-based; conditions: BK strain 26189
# [32] = tested on: E. coli; assay: Inhibition of bacterial growth; assay type: cell-based; conditions: not shown
# Description: as §3
# [33] = tested on: S. capitis; assay: MIC testing by broth microdilution; assay type: cell-based; conditions: Staphylococcus capitis
smiles,measurement,setting,value
CC[C@@H]1Cc2cc(O)ccc2C2=C1c1ccc(O)cc1C[C@H]2CC [MGC-10],complete inhibition of translation,[1],complete inhibition was not achieved
same,MIC,[2]; ATCC25923,6.25 µM
same,MIC,[2]; ATCC35556,6.25 µM
same,MIC,"[2]; ATCC 43300 / MRSA, S. aureus mecA + (MRSA) (ATCC 43300), Gram-positive, read-out: MIC",6.25 µM
same,MIC,[3]; BK strain 24474,6 µM
same,MIC,[3]; BK strain 25938,6 µM
same,MIC,[3]; BK strain 26190,12 µM
same,MIC90,[4],6 µM
same,MIC,"[5]; BK strain 26639, Methicillin R",6 µM
same,MIC,"[5]; Mammaliicoccus lentus, BK strain 26191",6 µM
same,Clast,[6],532 ng/mL
same,MIC,"[7]; BK strain 26974, Methicillin R",6 µM
same,MIC,"[7]; Staphylococcus epidermidis, BK strain 21192, Methicillin R",6 µM
same,depletion of the compound in liver microsomes,[8],no depletion
same,MIC,[9]; BK strain 26202,6 µM
same,MIC,"[9]; Staphylococcus warneri, BK strain 24473",6 µM
same,MIC,[10],100 µM
same,MIC,[11],> 100 µM
same,MIC,[12]; BK strain 26195,6 µM
same,MIC,"[12]; Staphylococcus saprophyticus, BK strain 26194",6 µM
same,in-life observations,[13],exhibited hunched postures; and were lethargic
same,MIC,[14],12 µM
same,activity at ERβ receptor,[15],antagonist
same,MIC,"[16]; BK strain 28088, Methicillin R",6 µM
same,MIC,"[16]; Staphylococcus lugdunensis, BK strain 26192",6 µM
same,MIC,[17],12 µM
same,cytotoxicity against Vero mammalian cells,[18],no cytotoxicity
same,"MIC (cytotoxicity, Vero)","[18]; African green monkey, 72 h",50 µM
same,MIC,"[19]; MRSA / USA300, BK strain 19494, CC 8, USA300, MRSA",6 µM
same,MIC,"[19]; MRSA / USA300 / USA500, MRSA clinical isolates typed as USA300 and USA500",6 µM
same,MIC,"[19]; MRSA / USA400, BK strain 19484, CC 1, USA400, MRSA",6 µM
same,MIC,"[19]; MRSA / USA600, BK strain 18519, CC 45, USA600, MRSA",6 µM
same,MIC,"[19]; MRSA / USA800, BK strain 18267, CC 5, USA800, MRSA",6 µM
same,MIC,"[19]; MRSA, BK strain 13180, CC 8, Trimethoprim-sulfamethoxazole resistant",6 µM
same,MIC,"[19]; MRSA, BK strain 21209, CC 8, Linezolid resistant",6 µM
same,MIC,"[19]; MRSA, BK strain 21346, CC 5, Tigecycline resistant",6 µM
same,MIC,"[19]; MRSA, BK strain 21347, CC 22, Linezolid resistant",6 µM
same,MIC,"[19]; MRSA, BK strain 22522, CC 5, Vancomycin resistant (vanA+), MRSA",6 µM
same,MIC,"[19]; MRSA, BK strain 22523, CC 5, Vancomycin resistant (vanA+), MRSA",6 µM
same,MIC,"[19]; MRSA, BK strain 23735, CC 125, BORSA",6 µM
same,MIC,"[19]; MRSA, BK strain 23736, CC 1, BORSA",6 µM
same,MIC,"[19]; MRSA, BK strain 26638, CC 398, LA-MRSA",6 µM
same,MIC,"[19]; MRSA, BK strain 46376, CC 8, hVISA",6 µM
same,MIC,"[19]; MRSA, BK strain 46377, CC 8, hVISA",6 µM
same,MIC,"[19]; MRSA, BK strain 58711, CC 5, Rifampin resistant",6 µM
same,MIC,"[19]; MRSA, BK strain 59775, CC 8, Trimethoprim-sulfamethoxazole resistant",6 µM
same,MIC,"[19]; MRSA, BK strain 61828, CC 398, MRSA",6 µM
same,MIC,"[19]; MRSA, BK strain 62861, CC 45, MRSA",6 µM
same,MIC,"[19]; MRSA, BK strain 62874, CC 59, MRSA",6 µM
same,MIC,"[19]; MRSA, BK strain 62961, CC 5, MRSA",6 µM
same,MIC,"[19]; MRSA, BK strain 62969, CC 5, MRSA",6 µM
same,MIC,"[19]; MRSA, BK strain 62976, CC 398, MRSA",6 µM
same,MIC,"[19]; MRSA, BK strain 63193, CC 30, MRSA",6 µM
same,MIC,"[19]; MRSA, BK strain 63218, CC 8, MRSA",6 µM
same,MIC,"[19]; MRSA, BK strain 63341, CC 8, MRSA",6 µM
same,MIC,"[19]; MRSA, BK strain 63738, CC 59, MRSA",6 µM
same,MIC,"[19]; MRSA, BK strain 63765, CC 30, MRSA",12 µM
same,MIC,"[19]; MRSA, BK strain 63776, CC 398, MRSA",6 µM
same,MIC,"[19]; MRSA, BK strain 63777, CC 45, MRSA",6 µM
same,MIC,"[19]; MRSA, methicillin-resistant Staphylococcus aureus (MRSA), abstract",6 µM
same,MIC,"[19]; MSSA / NCTC 8325, BK strain 21189, CC 8, MSSA (NCTC 8325)",12 µM
same,MIC,"[19]; MSSA, BK strain 73239, Mupirocin R",1.5 µM
same,MIC,"[19]; MSSA, BK strain 73242, Mupirocin R",3 µM
same,MIC,"[19]; MSSA, BK strain 73250, Mupirocin R",3 µM
same,MIC,"[19]; MSSA, BK strain 73267, Mupirocin R",6 µM
same,MIC,"[19]; MSSA, BK strain 73269, Mupirocin R",6 µM
same,MIC,"[19]; MSSA, BK strain 73336, Mupirocin R",12 µM
same,MIC,"[19]; MSSA, BK strain 73337, Mupirocin R",3 µM
same,MIC90,"[19]; for 29 of 31 MRSA strains, read-out: MIC90 and MIC50",6 µM
same,MIC,[19]; laboratory S. aureus strain 8325,12 µM
same,MIC,[20]; BK strain 26200,6 µM
same,MIC,"[20]; Mammaliicoccus sciuri, BK strain 26199",6 µM
same,MIC,[21],6 µM
same,MIC,[22],6 µM
same,MIC,[23],> 100 µM
same,inhibition at 6 µM,[24],97%
same,dermonecrosis as a result of S. aureus infection (area over time),[25],able to reduce dermonecrosis
same,bacterial burden in punch biopsies,[25],not statistically significant (P = 0.0575)
same,MIC,[26],> 100 µM
same,bactericidal test (CFU/mL over time),[27],notable bactericidal activity
same,AUC(0-inf),[28],171 µg·h/mL
same,half-life,[28],2.1 h
same,concentration at 7 h,[28]; Clast,733 ng/mL
same,depletion of the compound in liver microsomes,[29],no depletion
same,MIC,[30],6 µM
same,MIC,[31],12 µM
same,inhibition of growth of E. coli,[32],No inhibition
same,MIC,[33]; BK strain 22034,12 µM
same,MIC,[33]; BK strain 24463,6 µM
"C/C(=C\C(=O)OCCCCCCCCC(=O)O)C[C@@H]1OC[C@H](C[C@@H]2O[C@H]2[C@@H](C)[C@H](C)O)[C@@H](O)[C@H]1O [mupirocin, reference compound]",dermonecrosis as a result of S. aureus infection (area over time),[25],not having a significant effect on dermonecrosis
same,bacterial burden in punch biopsies,[25],significantly reduced the bacterial burden
